Measurements published in patent US11407781B2, “Equatorially modified polymer linked multimers of guanosine-3′, 5′-cyclic monophosphates” (GRAYBUG VISION, INC., priority 2016, dated 2022).

Assay: Determination of lipophilicity by RP-18 HPLC retention (log k′g)
Assay type: physicochemical
Settings: RP-18 reversed phase HPLC, gradient elution, ion pair chromatography with triethylammonium cation
From the text: Lipophilicity information is thus often only obtained by fragment analysis and corresponding calculations.
An established HPLC method, which is based on retention data on RP-18 reversed phase silica during gradient elution, was used for the determination of lipohilicity.
Instead of log P the method yields the descriptor log k′g, ranking analytes according to their lipophilicity on a logarithmic scale as well. Since charged molecules such as cyclic nucleotides have only hardly any retention on reversed phases, ion pair chromatography with the lipophilic triethylammonium cation is used.

Structure (SMILES): CC(C)c1ccc(Sc2nc3c(=O)n4cc(-c5ccccc5)[nH]c4nc3n2[C@@H]2O[C@@H]3CO[P@@](=O)(S)O[C@H]3[C@H]2O)cc1 (single isomer, unassigned) [Compound 35, 8-(4-Isopropylphenylthio)-β-phenyl-1,N^2-ethenoguanosine-3′,5′-cyclic monophosphorothioate, Rp-isomer]
- log k′g: 3.815
